According to article PMC6960285, “Unique Microbial Catabolic Pathway for the Human Core N-Glycan Constituent Fucosyl-α-1,6-N-Acetylglucosamine-Asparagine” (mBio, 2020):

Columns and labels:
AlfC = molecular target: T1, AlfC (Lacticaseibacillus paracasei, UniProt A0A422MHI3); test: transfucosylation, product by HPLC and NMR; format: biochemical; settings: acceptor, 100 mM; donor 50 mM pNP-fuc; 100 mM Tris-HCl pH 7.0, 42°C
T1 construct: gene BN194_28780; 6xHis-AlfC from E. coli DH10B with pQEalfC, purified as earlier published
T1 sequence (A0A422MHI3 1-344): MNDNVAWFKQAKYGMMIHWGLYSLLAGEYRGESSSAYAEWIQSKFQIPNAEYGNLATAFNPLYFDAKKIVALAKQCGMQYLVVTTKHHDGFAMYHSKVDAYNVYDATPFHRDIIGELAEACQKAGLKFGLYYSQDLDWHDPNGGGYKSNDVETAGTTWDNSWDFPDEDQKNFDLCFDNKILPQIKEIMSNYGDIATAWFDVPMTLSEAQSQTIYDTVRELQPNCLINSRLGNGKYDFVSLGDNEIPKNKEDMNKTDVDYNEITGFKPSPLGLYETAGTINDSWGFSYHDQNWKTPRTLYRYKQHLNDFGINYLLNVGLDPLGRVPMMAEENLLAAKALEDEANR

[1] = molecular target: His-tagged AsnA2, N(4)-(β-N-acetylglucosaminyl)-L-asparaginase (glycosylasparaginase) of Lactobacillus casei BL23 (Lactobacillus casei BL23); test: SEC; size exclusion chromatography of purified His-tagged AsnA2 on a HiPrep 16/60 Sephacryl S-300 HR column, calibrated with five standard proteins; native molecular weight estimated

| Molecule | transfucosylation, product by HPLC and NMR (AlfC) | stoichiometry N [1] |
| --- | --- | --- |
| CC(=O)N[C@@H]1[C@@H](O)[C@H](O)[C@@H](CO)O[C@H]1NC(=O)C[C@H](N)C(=O)O [GlcNAc-Asn] | the ability of AlfC to use GlcNAc-Asn as the acceptor was tested | – |
| His-tagged AsnA2, N(4)-(β-N-acetylglucosaminyl)-L-asparaginase (glycosylasparaginase) of Lactobacillus casei BL23 (enzyme) | – | 2 |
